Test results reported in BigSolDB 2.1.

Cl.Nc1ccccc1
solubility (mole fraction)
Details | 288.15 K | 298.15 K | 308.15 K | 318.15 K | 328.15 K
in ethanol | 0.082 | 0.098 | 0.115 | 0.134 | 0.155
in methanol | 0.144 | 0.165 | 0.188 | 0.208 | 0.23
in n-propanol | 0.047 | 0.057 | 0.07 | 0.083 | 0.098
